Laboratory results taken from PubChem BioAssay (NCI).
“And” between values parts separate entries of the source, which are not always exact repeats. Equal entries are not always repeated.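 Tested at 5 concentrations; 48 h exposure; 96-well plates; endpoints linearly interpolated, else capped at highest concentration. GI50 is the concentration that inhibits growth by half. At the TGI there is no net growth.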

Legend:
Test in all cases: NCI tumour cell line growth inhibition, 48 h
DLD-1 colon = tested on: DLD-1 colon
XF 498 CNS = tested on: XF 498 CNS
MDA-N = tested on: MDA-N
DMS 114 small cell lung = tested on: DMS 114 small cell lung
KM20L2 colon = tested on: KM20L2 colon
RXF-631 renal = tested on: RXF-631 renal
HOP-18 NSCLC = tested on: HOP-18 NSCLC
LXFL 529 NSCLC = tested on: LXFL 529 NSCLC
M19-MEL melanoma = tested on: M19-MEL melanoma

| Structure (SMILES) | TGI (DLD-1 colon) [µM] | TGI (XF 498 CNS) | TGI (MDA-N) [µM] | TGI (DMS 114 small cell lung) | TGI (KM20L2 colon) [µM] | TGI (RXF-631 renal) [µM] | TGI (HOP-18 NSCLC) [µM] | TGI (LXFL 529 NSCLC) | TGI (M19-MEL melanoma) | also measured |
| --- | --- | --- | --- | --- | --- | --- | --- | --- | --- | --- |
| Cc1cc(-c2c(F)cc3c4nn([C@H]5CC[C@@H](N(C)C)CC5)c(=O)c-4cn(C4CC4)c3c2F)cc(C)n1 | 2.85 | 0.757 µM and 2.29 µM | 6.75 | 0.124 µM and 0.36 µM | 0.462 | 0.256 | 0.919 | 0.267 µM and 1.31 µM | 0.507 µM and 1.59 µM | GI50 (DLD-1 colon): 156 nM; GI50 (XF 498 CNS): 394 nM; GI50 (DMS 114 small cell lung): 111 nM; GI50 (LXFL 529 NSCLC): 227 nM; GI50 (M19-MEL melanoma): 247 nM |
| CCOC(=O)c1cc(-c2ccc(-c3cc(C(=O)OCC)c(C#N)c(N)c3C#N)cc2)c(C#N)c(N)c1C#N | > 100 | > 100 µM |  | > 100 µM | > 100 | > 100 | > 100 | > 100 µM | > 100 µM |  |
| COc1ccc(C2=Nc3ccccc3SC(C)C2)cc1OC (stereo not given) |  | 32.8 µM |  | 34.8 µM | 33.6 | > 100 |  | 32 µM |  |  |
| Cc1c(C(=O)O)n(C)c(=O)n(C)c1=O | > 100 | > 100 µM |  |  | > 100 |  | > 100 | > 100 µM | > 100 µM |  |
| CCOC(=O)C(Cc1ccc(N(CCCl)CCCl)cc1)NC(=O)C(Cc1ccccc1)NC=O (stereo not given) |  |  | 0.338 |  |  |  |  |  |  |  |
| C/C(CN1C(=O)c2ccccc2C1=O)=N\NS(=O)(=O)c1cccc(C(=O)O)c1 | > 100 | > 100 µM |  | > 100 µM | > 100 | > 100 | > 100 | > 100 µM | > 100 µM |  |
| Cc1ccc(N=C[N-]c2ccc(C)cc2)cc1.Cc1ccc(N=C[N-]c2ccc(C)cc2)cc1.O=C([O-])C(F)(F)F.O=C([O-])C(F)(F)F.[OH3+].[OH3+].[Rh+2].[Rh+2] | > 100 | 59.4 µM |  | > 100 µM | > 100 | > 100 | 71.4 | 74.2 µM | 89.4 µM | GI50 (DLD-1 colon): 56700 nM; GI50 (XF 498 CNS): 22500 nM; GI50 (DMS 114 small cell lung): 38400 nM; GI50 (KM20L2 colon): 39.9 µM; GI50 (RXF-631 renal): > 100000 nM; GI50 (HOP-18 NSCLC): 27.7 µM; GI50 (LXFL 529 NSCLC): 28400 nM; GI50 (M19-MEL melanoma): 33300 nM |
| Cc1ccc(C)c(N2C(=O)C(=O)C(c3nc4ccccc4o3)C(=O)C2=O)c1 | 65.6 |  |  | > 100 µM | > 100 | > 100 | > 100 | > 100 µM | > 100 µM |  |
| COC1CC(O)C(OC(=O)c2ccccc2)C(C)O1 (stereo not given) |  | > 100 µM |  |  | > 100 | > 100 | > 100 |  | > 100 µM |  |
| CCC[CH2][Sn]([CH2]CCC)([S]C#N)[S]C#N | 2.23 | 1.98 µM |  | 2.68 µM | 3.6 | 1.43 | 2.44 | 0.749 µM | 5.04 µM | GI50 (DLD-1 colon): 999 nM; GI50 (XF 498 CNS): 779 nM; GI50 (DMS 114 small cell lung): 506 nM; GI50 (KM20L2 colon): 1.78 µM; GI50 (RXF-631 renal): 329 nM; GI50 (HOP-18 NSCLC): 1.21 µM; GI50 (LXFL 529 NSCLC): 122 nM; GI50 (M19-MEL melanoma): 909 nM |
| COc1ccc2oc3c(OC)c(OC)c(OC)cc3c(=O)c2c1 | > 100 | > 100 µM |  | > 100 µM | > 100 | > 100 | > 100 | > 100 µM | > 100 µM |  |
| COc1ccccc1NC(=O)C1=C(C)NC(C)=C(C(=O)Nc2ccccc2OC)C1/C=C/c1ccccc1 | > 100 |  |  | > 100 µM | > 100 |  | > 100 | > 100 µM | > 100 µM |  |
| S=C1Cc2c(-c3ccc(Br)cc3)cc(-c3ccccc3)nc2-c2ccccc2N1 |  |  | 9.03 |  |  |  |  |  |  |  |
| CCOC(=O)/C(=C/c1cccc(Cl)c1)N(CC)CC | > 100 | > 100 µM |  | > 100 µM |  |  | 84.6 | > 100 µM | > 100 µM |  |
| CC(C)c1cccc(C(C)C)c1N1C(=O)C(=O)C(c2nc3ccccc3o2)C(=O)C1=O | > 100 | 89.9 µM |  | 84.5 µM | > 100 | > 100 |  | > 100 µM | > 100 µM |  |
| CCCCCC(O)C(O)CCC[C@H](O)[C@H]1CC[C@H]([C@H]2CC[C@H]([C@H](O)CCCCCCCCCCCCC3=C[C@H](C)OC3=O)O2)O1 (stereo not given in full) |  |  | 23.5 |  |  |  |  |  |  | GI50 (MDA-N): 4.19 µM |
| CN(C)CC1CC/C(=C\c2ccc3c(c2)OCO3)C1=O (stereo not given) | 40.3 | 32.7 µM | 15.6 | 37.3 µM | 36.5 | 31.2 | 29.7 | 25.4 µM | 35.5 µM |  |
| C#CC1=CC(=O)C(OC)=CC1=O |  |  | 37.6 |  |  |  |  |  |  |  |
| COc1cc(/C=C/c2ccc(O)c(OC)c2)cc(OC)c1 |  |  | 46 |  |  |  |  |  |  |  |
| COC(=O)Nc1nc2ccccc2[nH]1 |  |  | 11.6 |  |  |  |  |  |  |  |

| Structure (SMILES) | TGI (DLD-1 colon) [µM] | TGI (XF 498 CNS) | TGI (MDA-N) [µM] | TGI (DMS 114 small cell lung) | TGI (KM20L2 colon) [µM] | TGI (RXF-631 renal) [µM] | TGI (HOP-18 NSCLC) [µM] | TGI (LXFL 529 NSCLC) | TGI (M19-MEL melanoma) | also measured |
| --- | --- | --- | --- | --- | --- | --- | --- | --- | --- | --- |
| CC(C)OC(=S)Nc1ccc(Cl)c(/C=N/OC(C)(C)C)c1 |  |  | 42 |  |  |  |  |  |  |  |
| C1CCCCc2nc3c(nc2CCC1)c1nc2c(nc1c1nc4c(nc31)CCCCCCCC4)CCCCCCCC2 | > 100 |  |  |  | > 100 | > 100 | > 100 | > 100 µM |  |  |
| Cc1ccc2nc(NC(=O)C(=O)C(C#N)c3ccc(Cl)cc3)sc2c1 (stereo not given) |  | > 50 µM |  | > 50 µM | > 50 |  | > 50 | > 50 µM | > 50 µM |  |
| CC1=C(SC#N)S(=O)(=O)N(c2ccccc2)C(C)=C1SC#N | > 100 | 72.3 µM |  | 38.3 µM |  |  |  | > 100 µM | > 100 µM |  |
| Cc1ccc([N+](=O)[O-])c2c(NCCNC(=O)c3cc(C(=O)NCCNc4ccnc5c(C)ccc([N+](=O)[O-])c45)n(C)n3)ccnc12 |  |  | > 58 |  |  |  |  |  |  |  |
| O=C(O)/C(Cc1ccnc2ccccc12)=N\O |  |  | > 100 |  |  |  |  |  |  |  |
| NC1c2ccccc2Nc2ccccc21 | 17.1 | 11.9 µM |  | 12.5 µM | 14.3 |  | 39.7 | 17.5 µM | 13.9 µM |  |
| O=C(O)/C(Cc1cn[nH]n1)=N\O |  |  | > 100 |  |  |  |  |  |  |  |
| Nc1nc2c(C(=O)NCc3cccs3)nnn2c2cccc(Cl)c12 |  |  | > 100 |  |  |  |  |  |  |  |
| CN1Cc2ccccc2/C=C\c2ccccc21 |  |  | > 100 |  |  |  |  |  |  |  |
| COCCOc1cc(C)cc(/C=C(C)/C=C/C2=C(C)CCCC2(C)C)n1 | > 100 | > 100 µM |  | > 100 µM |  | > 100 | > 100 | > 100 µM | > 100 µM |  |
| COc1ccc2nc(C(=O)c3ccccc3)c(C)cc2c1 | > 66.7 | 19.9 µM |  | 20.5 µM | 11 | > 100 | > 52 | > 100 µM | > 37.7 µM |  |
| O=[N+]([O-])c1ccc(Cl)c(CNc2ncnc3c2ncn3C2CCCCO2)c1 (stereo not given) |  |  | 27 |  |  |  |  |  |  |  |
| N#CC(C(=O)CCCC(=O)Nc1ccc(Cl)cc1Cl)c1ccccc1 (stereo not given) | > 100 |  |  | > 100 µM | > 100 | > 100 | > 100 |  | > 100 µM |  |
| COC1=CC(C2c3cc4c(cc3[C@@H](Nc3ccc(F)cc3)C3COC(=O)[C@H]23)OCO4)=CC(=O)C1=O (stereo not given in full) | > 100 | 27.9 µM |  |  | > 74.6 |  |  | 16.3 µM | 55.7 µM |  |
| O=C(O)CCNS(=O)(=O)c1ccc2ccccc2c1 | > 100 | > 100 µM |  |  | > 100 |  | > 100 | > 100 µM | > 100 µM |  |
| C1CN(c2nnc(N3CCC3)nn2)C1 | > 100 | 46.1 µM | 31 | 43.6 µM | > 63.7 |  | > 100 | 44 µM | 29.4 µM |  |
| Cc1cccc(C(=O)O)c1C(=O)c1cccc2ccccc12 | > 100 |  |  | > 100 µM | > 100 |  | > 100 | > 100 µM | > 100 µM |  |
| CC1OC(=O)C(O)=C1O (stereo not given) |  | > 100 µM |  |  | > 100 |  | > 100 | > 100 µM | > 100 µM |  |
| CCC(C)CC(C)CC(C)/C=C(\C)C1=C(C)CC(C)(O)O1 (stereo not given) | > 100 |  |  | > 100 µM |  | > 100 | > 100 | > 100 µM | > 100 µM |  |
